Assay results published in patent US12264134B2 (Merck Sharp & Dohme LLC, priority 2018, dated 2025).

Biological target: IDO1 (Homo sapiens, UniProt P14902)
Test: IDO1 Cellular Assay in HeLa Cells Stimulated with IFNγ
Assay type: cell-based
Details: read-out: HeLa Cell Potency, IC50

Sequence of IDO1 (P14902 whole entry): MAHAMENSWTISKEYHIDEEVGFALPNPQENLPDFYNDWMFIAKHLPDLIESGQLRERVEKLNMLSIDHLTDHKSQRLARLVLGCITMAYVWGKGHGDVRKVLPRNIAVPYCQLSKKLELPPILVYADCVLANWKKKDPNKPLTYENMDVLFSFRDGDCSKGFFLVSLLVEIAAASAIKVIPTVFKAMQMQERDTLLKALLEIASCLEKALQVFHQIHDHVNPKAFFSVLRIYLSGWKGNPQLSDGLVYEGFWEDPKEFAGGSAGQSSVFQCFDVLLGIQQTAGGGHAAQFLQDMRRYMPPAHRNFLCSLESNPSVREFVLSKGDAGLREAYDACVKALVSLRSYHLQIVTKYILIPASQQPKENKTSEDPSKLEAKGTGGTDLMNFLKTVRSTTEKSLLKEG

Point of comparison: Cc1cccc(N2CCN(C(=O)Cn3nc(C(=O)N4CC[C@H](O)[C@H](F)C4)c4c3C[C@H]3C[C@@H]43)[C@H]3CCC[C@@H]32)c1C (racemic) [Example 327, 1-[rac-(4aS,7aS or 4aR,7aR)-1-(2,3-dimethylphenyl)-3,4a,5,6,7,7a-hexahydro-2H-cyclopenta[b]pyrazin-4-yl]-2-[(2R,4R)-9-[(3R,4S)-3-fluoro-4-hydroxy-piperidine-1-carbonyl]-7,8-diazatricyclo[4.3.0.02,4]nona-1(6),8-dien-7-yl]ethanone], IC50 17.1 nM. Against it:
- Cc1cc(C)c(N2CCN(C(=O)Cn3nc(C(=O)N4C[C@@H](C)O[C@@H](C)C4)c4c3CCC4)CC2)cc1C [Example 71, 2-{3-[(2R,6S)-2,6-dimethylmorpholine-4-carbonyl]-5,6-dihydrocyclopenta[c]pyrazol-1(4H)-yl}-1-[4-(2,4,5-trimethylphenyl)piperazin-1-yl]ethan-1-one] — 8.5-fold higher, 145 nM
- Cc1cccc(N2CCN(C(=O)Cn3nc(C(=O)N4CCN(C(=O)CO)CC4)c4c3C[C@H]3C[C@@H]43)C(C(F)F)C2)c1C (stereo partly shown) [Example 389] — 2.8-fold higher, 47.6 nM
- Cc1c(N2CCN(C(=O)Cn3nc(C(=O)N4CCC(O)(CF)CC4)c4c3CCC4)CC2)ccc(F)c1Cl [Example 445, 1-(4-(3-chloro-4-fluoro-2-methylphenyl)piperazin-1-yl)-2-(3-(4-(fluoromethyl)-4-hydroxypiperidine-1-carbonyl)-5,6-dihydrocyclopenta[c]pyrazol-1(4H)-yl)ethan-1-one] — 3.2-fold lower, 5.31 nM
- Cc1cccc(N2CCN(C(=O)Cn3nc(C(=O)N4CCC(O)(C(F)(F)F)CC4)c4c3CCC4)CC2)c1C [Example 189, 1-[4-(2,3-dimethylphenyl)piperazin-1-yl]-2-{3-[4-hydroxy-4-(trifluoromethyl)piperidine-1-carbonyl]-5,6-dihydrocyclopenta[c]pyrazol-1(4H)-yl}ethan-1-one] — 3.8-fold lower, 4.53 nM
- Cc1cccc(N2CCN(C(=O)Cn3nc(C(=O)N4CCCC5(C4)NC(=O)NC5=O)c4c3C[C@H]3C[C@@H]43)CC2)c1C (stereo partly drawn) [Example 224, 7-[(3bR,4aR)-1-{2-[4-(2,3-dimethylphenyl)piperazin-1-yl]-2-oxoethyl}-3b,4,4a,5-tetrahydro-1H-cyclopropa[3,4]cyclopenta[1,2-c]pyrazole-3-carbonyl]-1,3,7-triazaspiro[4.5]decane-2,4-dione] — within 1.5-fold, 16.5 nM
- O=C(Cn1nc(C(=O)N2CC[C@H](O)[C@H](F)C2)c2c1CCC2)N1CCN(C2CCc3ccccc32)CC1 (mixture of isomers) [Example 438, 1-(4-(2,3-dihydro-1H-inden-1-yl)piperazin-1-yl)-2-(3-((3R,4S)-3-fluoro-4-hydroxypiperidine-1-carbonyl)-5,6-dihydrocyclopenta[c]pyrazol-1(4H)-yl)ethanone] — 93-fold higher, 1590 nM
- Cc1cccc(N2CCN(C(=O)Cn3nc(C(=O)N4CC[C@H](O)[C@H](F)C4)c4c3CCC4C(F)F)CC2)c1C (single isomer, unassigned) [Example 14] — 2.6-fold higher, 43.8 nM
- Cc1cccc(N2CCN(C(=O)Cn3nc(C(=O)N4CCC5(CC4)CC(=O)N5)c4c3C[C@H]3C[C@@H]43)CC2)c1C [Example 219, 7-[(3bR,4aR)-1-{2-[4-(2,3-dimethylphenyl)piperazin-1-yl]-2-oxoethyl}-3b,4,4a,5-tetrahydro-1H-cyclopropa[3,4]cyclopenta[1,2-c]pyrazole-3-carbonyl]-1,7-diazaspiro[3.5]nonan-2-one] — 20-fold lower, 0.86 nM
- Cc1cccc(N2CCN(C(=O)Cn3nc(C(=O)N4CC[C@@H](O)C[C@@H]4C)c4c3C[C@H]3C[C@@H]43)CC2)c1C [Example 261, 1-[4-(2,3-dimethylphenyl)piperazin-1-yl]-2-{(3bR,4aR)-3-[(2S,4R)-4-hydroxy-2-methylpiperidine-1-carbonyl]-3b,4,4a,5-tetrahydro-1H-cyclopropa[3,4]cyclopenta[1,2-c]pyrazol-1-yl}ethan-1-one] — 18-fold lower, 0.95 nM
- Cc1cccc(N2CCN(C(=O)Cn3nc(C(=O)N4CCN(C(=O)[C@@H](C)O)CC4)c4c3CCC4)CC2)c1C [Example 403, (R)-1-(4-(1-(2-(4-(2,3-dimethylphenyl)piperazin-1-yl)-2-oxoethyl)-1,4,5,6-tetrahydrocyclopenta[c]pyrazole-3-carbonyl)piperazin-1-yl)-2-hydroxypropan-1-one] — within 1.5-fold, 18.3 nM
- Cc1cccc(N2CCN(C(=O)Cn3nc(C(=O)N4CCC(O)CC4)c4c3CCC4C(F)F)CC2)c1C (racemic) [Example 18, 2-[rac-4-(difluoromethyl)-3-(4-hydroxypiperidine-1-carbonyl)-5,6-dihydro-4H-cyclopenta[c]pyrazol-1-yl]-1-[4-(2,3-dimethylphenyl)piperazin-1-yl]ethanone] — 5.4-fold higher, 92.4 nM
- Cc1cccc(N2CCN(C(=O)Cn3nc(C(=O)N4CCC(NC(=O)NN)CC4)c4c3C[C@H]3C[C@@H]43)CC2)c1C [Example 242, N-{1-[(3bR,4aR)-1-{2-[4-(2,3-dimethylphenyl)piperazin-1-yl]-2-oxoethyl}-3b,4,4a,5-tetrahydro-1H-cyclopropa[3,4]cyclopenta[1,2-c]pyrazole-3-carbonyl]piperidin-4-yl}hydrazinecarboxamide] — 5.9-fold higher, 101 nM
- C[C@@H]1CN(C(=O)c2nn(CC(=O)N3CCN(c4ccc5c(c4)CCO5)CC3)c3c2CCC3)C[C@H](C)O1 [Example 31, 1-[4-(2,3-dihydro-1-benzofuran-5-yl)piperazin-1-yl]-2-{3-[(2R,6S)-2,6-dimethylmorpholine-4-carbonyl]-5,6-dihydrocyclopenta[c]pyrazol-1(4H)-yl}ethan-1-one] — 10-fold higher, 178 nM
- Cc1cccc(N2CCN(C(=O)Cn3nc(C(=O)N4CCC(O)(c5ccccc5)CC4)c4c3CCC4)CC2)c1C [Example 111, 1-[4-(2,3-dimethylphenyl)piperazin-1-yl]-2-[3-(4-hydroxy-4-phenylpiperidine-1-carbonyl)-5,6-dihydrocyclopenta[c]pyrazol-1(4H)-yl]ethan-1-one] — 1.7-fold higher, 28.6 nM
- Cc1cccc(N2CCN(C(=O)Cn3nc(C(=O)N4CC[C@H](O)[C@H](F)C4)c4c3CCC4C(F)F)CC2)c1C (mixture of isomers) [Example 19, 2-[rac-4-(difluoromethyl)-3-[(3R,4S)-3-fluoro-4-hydroxy-piperidine-1-carbonyl]-5,6-dihydro-4H-cyclopenta[c]pyrazol-1-yl]-1-[4-(2,3-dimethylphenyl)piperazin-1-yl]ethanone] — 6.6-fold higher, 113 nM
- Cc1cccc(N2CCN(C(=O)Cn3nc(C(=O)N4CCC(C)(N)CC4)c4c3CCC4)CC2)c1C [Example 176, 2-[3-(4-amino-4-methylpiperidine-1-carbonyl)-5,6-dihydrocyclopenta[c]pyrazol-1(4H)-yl]-1-[4-(2,3-dimethylphenyl)piperazin-1-yl]ethan-1-one] — 28-fold higher, 476 nM
- Cc1cccc(N2CCN(C(=O)Cn3nc(C(=O)N4CCC(O)(CN(C)C)CC4)c4c3CCC4)CC2)c1C [Example 113, 2-[3-{4-[(dimethylamino)methyl]-4-hydroxypiperidine-1-carbonyl}-5,6-dihydrocyclopenta[c]pyrazol-1(4H)-yl]-1-[4-(2,3-dimethylphenyl)piperazin-1-yl]ethan-1-one] — 22-fold higher, 372 nM
- Cc1cccc(N2CCN(C(=O)Cn3nc(C(=O)N4CC[C@@H](O)C[C@H]4C)c4c3C[C@H]3C[C@@H]43)CC2)c1C [Example 231, 1-[4-(2,3-dimethylphenyl)piperazin-1-yl]-2-{(3bR,4aR)-3-[(2R,4R)-4-hydroxy-2-methylpiperidine-1-carbonyl]-3b,4,4a,5-tetrahydro-1H-cyclopropa[3,4]cyclopenta[1,2-c]pyrazol-1-yl}ethan-1-one] — 3.9-fold lower, 4.38 nM
